Positions of bridges follow the written chain, without caps; N, C: chain ends. Non-standard residues stand in square brackets, D forms with d. Residues, ends and D or L forms follow the SMILES beside them. Bip(4'-COOH) = N[C@@H](Cc1ccc(-c2ccc(C(=O)O)cc2)cc1)C(=O)O; Bip(4'-NHAc) = CC(=O)Nc1ccc(-c2ccc(C[C@H](N)C(=O)O)cc2)cc1; Ala(morpholin-4-yl) = N[C@@H](CN1CCOCC1)C(=O)O; Phe(3-CONH2) = NC(=O)c1cccc(C[C@H](N)C(=O)O)c1; Bip = N[C@@H](Cc1ccc(-c2ccccc2)cc1)C(=O)O; NMeF = CN[C@@H](Cc1ccccc1)C(=O)O; 2Pal = N[C@@H](Cc1ccccn1)C(=O)O; 3Pal = N[C@@H](Cc1cccnc1)C(=O)O; 2Thi = N[C@@H](Cc1cccs1)C(=O)O; Cha = N[C@@H](CC1CCCCC1)C(=O)O; Chg = N[C@H](C(=O)O)C1CCCCC1; Aze = O=C(O)[C@@H]1CCN1; Sar = CNCC(=O)O
Target: TNFα (Homo sapiens, UniProt P01375)
Assay: TNF-Induced HEK-Blue Assay
Type: cell-based
Conditions: HEK-Blue-CD40L cells, NF-kB-driven secreted alkaline phosphatase reporter; TNFα 0.5 ng/ml; 18 h; read-out: TNF induced HEK-Blue assay IC50 value

Chain of TNFα (P01375 77-233 limits assumed): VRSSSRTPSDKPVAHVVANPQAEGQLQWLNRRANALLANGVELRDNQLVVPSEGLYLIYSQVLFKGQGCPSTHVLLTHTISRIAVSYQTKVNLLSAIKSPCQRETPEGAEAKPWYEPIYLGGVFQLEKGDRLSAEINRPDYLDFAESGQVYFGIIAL

SMILES: CC(C)C[C@@H]1NC(=O)[C@H](Cc2ccccc2)N(C)C(=O)[C@H](C(C)C)NC(=O)[C@@H]2CCCN2C(=O)[C@H](C(C)C)NC(=O)[C@@H](CCCNC(=N)N)NC(=O)[C@H](CC(=O)O)NC(=O)[C@H](Cc2ccc(O)cc2)NC(=O)CN(C)C(=O)[C@H](Cc2ccc(-c3ccccc3)cc2)NC(=O)[C@H](Cc2ccc(-c3ccc(C(=O)O)cc3)cc2)NC(=O)[C@H](CN2CCOCC2)NC(=O)CSC[C@@H](C(=O)NCC(N)=O)NC1=O [Example 220] ({CH2CO}-[Ala(morpholin-4-yl)][Bip(4'-COOH)][Bip][Sar]YD[dR]VPV[NMeF]LCG-NH2; thioether N-13)
- IC50: < 50 nM

SMILES: CC(=O)Nc1ccc(-c2ccc(C[C@@H]3NC(=O)[C@H](Cc4ccc(-c5ccccc5)cc4)NC(=O)[C@H](CN4CCOCC4)NC(=O)CSC[C@@H](C(=O)NCC(N)=O)NC(=O)[C@H](CC(C)C)NC(=O)[C@H](Cc4ccc(O)cc4)NC(=O)[C@H](C(C)C)NC(=O)[C@@H]4CCN4C(=O)[C@H](C(C)C)NC(=O)[C@@H](CCCNC(=N)N)NC(=O)[C@H](CC(=O)O)NC(=O)[C@H](Cc4ccccc4)NC(=O)CN(C)C3=O)cc2)cc1 [Example 221] ({CH2CO}-[Ala(morpholin-4-yl)][Bip][Bip(4'-NHAc)][Sar]FD[dR]V[Aze]VYLCG-NH2; thioether N-13)
- IC50: < 50 nM

SMILES: CC(=O)Nc1ccc(-c2ccc(C[C@@H]3NC(=O)[C@H](Cc4ccc(-c5ccccc5)cc4)NC(=O)[C@H](CN4CCOCC4)NC(=O)CSC[C@@H](C(=O)NCC(N)=O)NC(=O)[C@H](CC(C)C)NC(=O)[C@H](Cc4ccccn4)NC(=O)[C@H](C(C)C)NC(=O)[C@@H]4CCCN4C(=O)[C@H](C(C)C)NC(=O)[C@@H](CCCNC(=N)N)NC(=O)[C@H](CC(=O)O)NC(=O)[C@H](Cc4ccc(O)cc4)NC(=O)CN(C)C3=O)cc2)cc1 [Example 222] ({CH2CO}-[Ala(morpholin-4-yl)][Bip][Bip(4'-NHAc)][Sar]YD[dR]VPV[2Pal]LCG-NH2; thioether N-13)
- IC50: < 50 nM

SMILES: CC(=O)Nc1ccc(-c2ccc(C[C@@H]3NC(=O)[C@H](Cc4ccc(-c5ccccc5)cc4)NC(=O)[C@H](CN4CCOCC4)NC(=O)CSC[C@@H](C(=O)NCC(N)=O)NC(=O)[C@H](CC(C)C)NC(=O)[C@H](Cc4cccnc4)NC(=O)[C@H](C(C)C)NC(=O)[C@@H]4CCCN4C(=O)[C@H](C(C)C)NC(=O)[C@@H](CCCNC(=N)N)NC(=O)[C@H](CC(=O)O)NC(=O)[C@H](Cc4ccc(O)cc4)NC(=O)CN(C)C3=O)cc2)cc1 [Example 223] ({CH2CO}-[Ala(morpholin-4-yl)][Bip][Bip(4'-NHAc)][Sar]YD[dR]VPV[3Pal]LCG-NH2; thioether N-13)
- IC50: < 50 nM

SMILES: CC(=O)Nc1ccc(-c2ccc(C[C@@H]3NC(=O)[C@H](Cc4ccc(-c5ccc(C(=O)O)cc5)cc4)NC(=O)[C@H](CN4CCOCC4)NC(=O)CSC[C@@H](C(=O)NCC(N)=O)NC(=O)[C@H](CC(C)C)NC(=O)[C@H](Cc4ccccc4)NC(=O)[C@H](C(C)C)NC(=O)[C@@H]4CCCN4C(=O)[C@H](C(C)C)NC(=O)[C@@H](CCCNC(=N)N)NC(=O)[C@H](CC(=O)O)NC(=O)[C@H](Cc4ccccc4)NC(=O)CN(C)C3=O)cc2)cc1 [Example 225] ({CH2CO}-[Ala(morpholin-4-yl)][Bip(4'-COOH)][Bip(4'-NHAc)][Sar]FD[dR]VPVFLCG-NH2; thioether N-13)
- IC50: 50 to 200 nM

SMILES: CC(=O)Nc1ccc(-c2ccc(C[C@@H]3NC(=O)[C@H](Cc4ccc(-c5ccc(C(=O)O)cc5)cc4)NC(=O)[C@H](CN4CCOCC4)NC(=O)CSC[C@@H](C(=O)NCC(N)=O)NC(=O)[C@H](CC(C)C)NC(=O)[C@H](CCCNC(=N)N)NC(=O)[C@H](C(C)C)NC(=O)[C@@H]4CCCN4C(=O)[C@H](CC(N)=O)NC(=O)[C@@H](CCCNC(=N)N)NC(=O)[C@H](CC(=O)O)NC(=O)[C@H](Cc4ccccn4)NC(=O)CN(C)C3=O)cc2)cc1 [Example 226] ({CH2CO}-[Ala(morpholin-4-yl)][Bip(4'-COOH)][Bip(4'-NHAc)][Sar][2Pal]D[dR]NPVRLCG-NH2; thioether N-13)
- IC50: 50 to 200 nM

SMILES: CC(=O)Nc1ccc(-c2ccc(C[C@@H]3NC(=O)[C@H](Cc4ccc(-c5ccccc5)cc4)NC(=O)[C@H](CN4CCOCC4)NC(=O)CSC[C@@H](C(=O)NCC(N)=O)NC(=O)[C@H](CC(C)C)NC(=O)[C@H](Cc4ccccc4)NC(=O)[C@H](C(C)C)NC(=O)[C@@H]4CCCN4C(=O)[C@H](C(C)C)NC(=O)[C@@H](CCCNC(=N)N)NC(=O)[C@H](CC(=O)O)NC(=O)[C@H](Cc4ccccn4)NC(=O)CN(C)C3=O)cc2)cc1 [Example 227] ({CH2CO}-[Ala(morpholin-4-yl)][Bip][Bip(4'-NHAc)][Sar][2Pal]D[dR]VPVFLCG-NH2; thioether N-13)
- IC50: 50 to 200 nM

SMILES: CC(=O)Nc1ccc(-c2ccc(C[C@@H]3NC(=O)[C@H](Cc4ccc(-c5ccccc5)cc4)NC(=O)[C@H](CN4CCOCC4)NC(=O)CSC[C@@H](C(=O)NCC(N)=O)NC(=O)[C@H](CC(C)C)NC(=O)[C@H](Cc4ccccn4)NC(=O)[C@H](C(C)C)NC(=O)[C@@H]4CCCN4C(=O)[C@H](C(C)C)NC(=O)[C@@H](CCCNC(=N)N)NC(=O)[C@H](CC(=O)O)NC(=O)[C@H](Cc4ccccc4)NC(=O)CN(C)C3=O)cc2)cc1 [Example 228] ({CH2CO}-[Ala(morpholin-4-yl)][Bip][Bip(4'-NHAc)][Sar]FD[dR]VPV[2Pal]LCG-NH2; thioether N-13)
- IC50: < 50 nM

SMILES: CC(C)C[C@@H]1NC(=O)[C@H](CCCNC(=N)N)NC(=O)[C@H](C(C)C)NC(=O)[C@@H]2CCCN2C(=O)[C@H](C(C)C)NC(=O)[C@@H](CCCNC(=N)N)NC(=O)[C@H](CC(=O)O)NC(=O)[C@H](Cc2cnc[nH]2)NC(=O)CN(C)C(=O)[C@H](Cc2ccc(-c3ccccc3)cc2)NC(=O)[C@H](Cc2ccc(-c3ccccc3)cc2)NC(=O)[C@H](CN2CCOCC2)NC(=O)CSC[C@@H](C(=O)NCC(N)=O)NC1=O [Example 229] ({CH2CO}-[Ala(morpholin-4-yl)][Bip][Bip][Sar]HD[dR]VPVRLCG-NH2; thioether N-13)
- IC50: 50 to 200 nM

SMILES: CC(C)C[C@@H]1NC(=O)[C@H](CCCNC(=N)N)NC(=O)[C@H](C2CCCCC2)NC(=O)[C@@H]2CCCN2C(=O)[C@H](C(C)C)NC(=O)[C@@H](CCCNC(=N)N)NC(=O)[C@H](CC(=O)O)NC(=O)[C@H](Cc2cnc[nH]2)NC(=O)CN(C)C(=O)[C@H](Cc2ccc(-c3ccccc3)cc2)NC(=O)[C@H](Cc2ccc(-c3ccccc3)cc2)NC(=O)[C@H](CN2CCOCC2)NC(=O)CSC[C@@H](C(=O)NCC(N)=O)NC1=O [Example 230] ({CH2CO}-[Ala(morpholin-4-yl)][Bip][Bip][Sar]HD[dR]VP[Chg]RLCG-NH2; thioether N-13)
- IC50: 50 to 200 nM

SMILES: CC(C)C[C@@H]1NC(=O)[C@H](Cc2ccccc2)NC(=O)[C@H](C(C)C)NC(=O)[C@@H]2CCCN2C(=O)[C@H](C(C)C)NC(=O)[C@@H](CCCNC(=N)N)NC(=O)[C@H](CC(=O)O)NC(=O)[C@H](Cc2cnc[nH]2)NC(=O)CN(C)C(=O)[C@H](Cc2ccc(-c3ccccc3)cc2)NC(=O)[C@H](Cc2ccc(-c3ccccc3)cc2)NC(=O)[C@H](CN2CCOCC2)NC(=O)CSC[C@@H](C(=O)NCC(N)=O)NC1=O [Example 231] ({CH2CO}-[Ala(morpholin-4-yl)][Bip][Bip][Sar]HD[dR]VPVFLCG-NH2; thioether N-13)
- IC50: 50 to 200 nM

SMILES: CC(=O)Nc1ccc(-c2ccc(C[C@@H]3NC(=O)[C@H](Cc4ccc(-c5ccccc5)cc4)NC(=O)[C@H](CN4CCOCC4)NC(=O)CSC[C@@H](C(=O)NCC(N)=O)NC(=O)[C@H](CC(C)C)NC(=O)[C@H](CCCNC(=N)N)NC(=O)[C@H](C4CCCCC4)NC(=O)[C@@H]4CCCN4C(=O)[C@H](C(C)C)NC(=O)[C@@H](CCCNC(=N)N)NC(=O)[C@H](CC(=O)O)NC(=O)[C@H](Cc4cnc[nH]4)NC(=O)CN(C)C3=O)cc2)cc1 [Example 232] ({CH2CO}-[Ala(morpholin-4-yl)][Bip][Bip(4'-NHAc)][Sar]HD[dR]VP[Chg]RLCG-NH2; thioether N-13)
- IC50: < 50 nM

SMILES: CC(=O)Nc1ccc(-c2ccc(C[C@@H]3NC(=O)[C@H](Cc4ccc(-c5ccccc5)cc4)NC(=O)[C@H](CC4CCCCC4)NC(=O)CSC[C@@H](C(=O)NCC(N)=O)NC(=O)[C@H](CC(C)C)NC(=O)[C@H](Cc4cccc(C(N)=O)c4)NC(=O)[C@H](C(C)C)NC(=O)[C@@H]4CCCN4C(=O)[C@H](C(C)C)NC(=O)[C@@H](CCCNC(=N)N)NC(=O)[C@H](CC(=O)O)NC(=O)[C@H](Cc4ccccn4)NC(=O)CN(C)C3=O)cc2)cc1 [Example 233] ({CH2CO}-[Cha][Bip][Bip(4'-NHAc)][Sar][2Pal]D[dR]VPV[Phe(3-CONH2)]LCG-NH2; thioether N-13)
- IC50: < 50 nM

SMILES: CC(=O)Nc1ccc(-c2ccc(C[C@@H]3NC(=O)[C@H](Cc4ccc(-c5ccc(C(=O)O)cc5)cc4)NC(=O)[C@H](CC4CCCCC4)NC(=O)CSC[C@@H](C(=O)NCC(N)=O)NC(=O)[C@H](CC(C)C)NC(=O)[C@H](Cc4cnc[nH]4)NC(=O)[C@H](C(C)C)NC(=O)[C@@H]4CCCN4C(=O)[C@H](C(C)C)NC(=O)[C@@H](CCCNC(=N)N)NC(=O)[C@H](CC(=O)O)NC(=O)[C@H](Cc4cnc[nH]4)NC(=O)CN(C)C3=O)cc2)cc1 [Example 234] ({CH2CO}-[Cha][Bip(4'-COOH)][Bip(4'-NHAc)][Sar]HD[dR]VPVHLCG-NH2; thioether N-13)
- IC50: < 50 nM

SMILES: CC(=O)Nc1ccc(-c2ccc(C[C@@H]3NC(=O)[C@H](Cc4ccc(-c5ccccc5)cc4)NC(=O)[C@H](CC4CCCCC4)NC(=O)CSC[C@@H](C(=O)NCC(N)=O)NC(=O)[C@H](CC(C)C)NC(=O)[C@H](Cc4cccs4)NC(=O)[C@H](C(C)C)NC(=O)[C@@H]4CCCN4C(=O)[C@H](C(C)C)NC(=O)[C@@H](CCCNC(=N)N)NC(=O)[C@H](CC(=O)O)NC(=O)[C@H](Cc4ccccn4)NC(=O)CN(C)C3=O)cc2)cc1 [Example 235] ({CH2CO}-[Cha][Bip][Bip(4'-NHAc)][Sar][2Pal]D[dR]VPV[2Thi]LCG-NH2; thioether N-13)
- IC50: 200 to 2000 nM

SMILES: CC(=O)Nc1ccc(-c2ccc(C[C@@H]3NC(=O)[C@H](Cc4ccc(-c5ccc(C(=O)O)cc5)cc4)NC(=O)[C@H](CN4CCOCC4)NC(=O)CSC[C@@H](C(=O)NCC(N)=O)NC(=O)[C@H](CC(C)C)NC(=O)[C@H](Cc4ccc(O)cc4)NC(=O)[C@H](C(C)C)NC(=O)[C@@H]4CCCN4C(=O)[C@H](C(C)C)NC(=O)[C@@H](CCCNC(=N)N)NC(=O)[C@H](CC(=O)O)NC(=O)[C@@H]4CCCN4C(=O)CN(C)C3=O)cc2)cc1 [Example 236] ({CH2CO}-[Ala(morpholin-4-yl)][Bip(4'-COOH)][Bip(4'-NHAc)][Sar]PD[dR]VPVYLCG-NH2; thioether N-13)
- IC50: 200 to 2000 nM
